Measured values reported in patent US20100298141A1, “SUBSTITUTED PYRIDINE N-OXIDE HERBICIDES” (E. I. DU PONT DE NEMOURS AND COMPANY, priority 2007, published 2010).

Key:
morningglory = assay: Test A pre-/postemergence greenhouse test; format: in vivo, Ipomoea spp.; details: for Plant response rating, Morningglory: 0 to 100 scale where 0 is no effect and 100 is complete control; for Morningglory plant response rating: 0 to 100 scale
In short: (§1)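 Each test compound, dissolved in a non-phytotoxic solvent mixture with surfactant, was sprayed directly onto seeded soil (loam/sand blend) and, at the same moment, onto seedlings carrying one to two leaves. Around ten greenhouse days later, plants were rated visually for injury relative to untreated controls.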

blackgrass = assay: Test C pre-/postemergence test; format: in vivo, Alopecurus myosuroides
In short: (§2)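 Compounds in a non-phytotoxic solvent with surfactant applied preemergence to seeded pots and, at the same time, postemergence to plants 2–18 cm tall (1- to 4-leaf stage). Paddy tests: pots flooded to 3 cm, compound applied into the water, depth held throughout.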

wheat [1] = assay: Test A pre-/postemergence greenhouse test; format: in vivo, Triticum aestivum; details: for Wheat plant response rating: 0 to 100 scale
In short: as §1

woolly cupgrass = assay: Test C pre-/postemergence test; format: in vivo, Eriochloa villosa
In short: as §2

[2] = system: common (oilseed) sunflower; assay: Test C pre-/postemergence test; format: in vivo, Helianthus annuus
In short: as §2

wheat [3] = assay: Test C pre-/postemergence test; format: in vivo, Triticum aestivum
In short: as §2

velvetleaf = assay: Test C pre-/postemergence test; format: in vivo, Abutilon theophrasti
In short: as §2

downy brome = assay: Test C pre-/postemergence test; format: in vivo, Bromus tectorum
In short: as §2

cocklebur = assay: Test C pre-/postemergence test; format: in vivo, Xanthium strumarium
In short: as §2

redroot pigweed = assay: Test A pre-/postemergence greenhouse test; format: in vivo, Amaranthus retroflexus; details: for Plant response rating, Pigweed: 0 to 100 scale where 0 is no effect and 100 is complete control; for Pigweed plant response rating: 0 to 100 scale
In short: as §1

giant foxtail [4] = assay: Test C pre-/postemergence test; format: in vivo, Setaria faberii
In short: as §2

giant foxtail [5] = assay: Test A pre-/postemergence greenhouse test; format: in vivo, Setaria faberi; details: for Plant response rating, Foxtail, Giant: 0 to 100 scale where 0 is no effect and 100 is complete control; for Foxtail, Giant plant response rating: 0 to 100 scale
In short: as §1

kochia = assay: Test C pre-/postemergence test; format: in vivo, Kochia scoparia
In short: as §2

catchweed bedstraw = assay: Test C pre-/postemergence test; format: in vivo, Galium aparine
In short: as §2

Surinam grass = assay: Test C pre-/postemergence test; format: in vivo, Brachiaria decumbens
In short: as §2

eastern black nightshade = assay: Test C pre-/postemergence test; format: in vivo, Solanum ptycanthum
In short: as §2

wild oat = assay: Test C pre-/postemergence test; format: in vivo, Avena fatua
In short: as §2

common ragweed = assay: Test C pre-/postemergence test; format: in vivo, Ambrosia elation
In short: as §2

lambsquarters = assay: Test C pre-/postemergence test; format: in vivo, Chenopodium album
In short: as §2

[6] = Postemergence, 500 g ai/ha, 0 is no effect, 100 is complete control
[7] = Preemergence, 125 g ai/ha, 0 no effect, 100 complete control
[8] = 62 g ai/ha, Preemergence, scale 0 to 100
[9] = 125 g ai/ha, preemergence, scale 0 (no effect) to 100 (complete control)
[10] = Preemergence, 31 g ai/ha, scale 0 to 100 (0 no effect, 100 complete control)
[11] = preemergence, 250 g ai/ha, scale 0 (no effect) to 100 (complete control)

Q: For `Cc1cc[n+]([O-])c(S(=O)(=O)Cc2c(C(F)(F)F)nn(C)c2OCC(F)F)c1` [Compound 94], which “Plant response rating, Morningglory” value (morningglory; Postemergence, 125 g ai/ha) is on record?
A: 50

Q: And the “Morningglory plant response rating” value (morningglory; [6])?
A: 60

Q: And the “Morningglory plant response rating” value (morningglory; [7])?
A: 50

Q: What about the “Plant response rating, Morningglory” value (morningglory; Preemergence, 500 g ai/ha) of the same molecule?
A: 100

Q: And the “Blackgrass plant response rating” value (blackgrass; [8])?
A: 95

Q: And the “Blackgrass plant response rating” value (blackgrass; [9])?
A: 100

Q: What about the “Plant response rating, Blackgrass” value (blackgrass; [10]) of the same molecule?
A: 70

Q: And the “Blackgrass plant response rating” value (blackgrass; [11])?
A: 100

Q: What about the “Plant response rating, Wheat” value (wheat [1]; Postemergence, 125 g ai/ha, 0 to 100 scale where 0 is no effect and 100 is complete control) of the same molecule?
A: 60

Q: And the “Wheat plant response rating” value (wheat [1]; [6])?
A: 80

Q: And the “Wheat plant response rating” value (wheat [1]; [7])?
A: 40

Q: And the “Wheat plant response rating” value (wheat [1]; Preemergence, 500 g ai/ha, 0 no effect, 100 complete control)?
A: 90

Q: And the “Cupgrass, Woolly plant response rating” value (woolly cupgrass; [8])?
A: 90

Q: And the “Cupgrass, Woolly plant response rating” value (woolly cupgrass; [9])?
A: 100

Q: And the “Plant response rating, Cupgrass, Woolly” value (woolly cupgrass; [10])?
A: 10

Q: And the “Cupgrass, Woolly plant response rating” value (woolly cupgrass; [11])?
A: 100

Q: What about the “Sunflower plant response rating” value [2, 8] of the same molecule?
A: 0

Q: What about the “Sunflower plant response rating” value [2, 9] of the same molecule?
A: 45

Q: What about the “Plant response rating, Sunflower” value [2, 10] of the same molecule?
A: 0

Q: And the “Sunflower plant response rating” value [2, 11]?
A: 80

Q: And the “Wheat plant response rating” value (wheat [3]; [8])?
A: 60

Q: What about the “Wheat plant response rating” value (wheat [3]; [9]) of the same molecule?
A: 80

Q: What about the “Plant response rating, Wheat” value (wheat [3]; [10]) of the same molecule?
A: 30

Q: And the “Wheat plant response rating” value (wheat [3]; [11])?
A: 80

Q: And the “Velvetleaf plant response rating” value (velvetleaf; [8])?
A: 40

Q: And the “Velvetleaf plant response rating” value (velvetleaf; [9])?
A: 100

Q: And the “Plant response rating, Velvetleaf” value (velvetleaf; [10])?
A: 0

Q: And the “Velvetleaf plant response rating” value (velvetleaf; [11])?
A: 100

Q: And the “Bromegrass, Downy plant response rating” value (downy brome; [8])?
A: 75

Q: What about the “Bromegrass, Downy plant response rating” value (downy brome; [9]) of the same molecule?
A: 80

Q: What about the “Plant response rating, Bromegrass, Downy” value (downy brome; [10]) of the same molecule?
A: 10

Q: What about the “Bromegrass, Downy plant response rating” value (downy brome; [11]) of the same molecule?
A: 95

Q: What about the “Cocklebur plant response rating” value (cocklebur; [8]) of the same molecule?
A: 0

Q: And the “Cocklebur plant response rating” value (cocklebur; [9])?
A: 0

Q: What about the “Plant response rating, Cocklebur” value (cocklebur; [10]) of the same molecule?
A: 0

Q: What about the “Cocklebur plant response rating” value (cocklebur; [11]) of the same molecule?
A: 0

Q: What about the “Plant response rating, Pigweed” value (redroot pigweed; Postemergence, 125 g ai/ha) of the same molecule?
A: 60

Q: And the “Pigweed plant response rating” value (redroot pigweed; [6])?
A: 80

Q: What about the “Pigweed plant response rating” value (redroot pigweed; [7]) of the same molecule?
A: 100

Q: And the “Plant response rating, Pigweed” value (redroot pigweed; Preemergence, 500 g ai/ha)?
A: 100

Q: What about the “Foxtail, Giant plant response rating” value (giant foxtail [4]; [8]) of the same molecule?
A: 95

Q: What about the “Foxtail, Giant plant response rating” value (giant foxtail [4]; [9]) of the same molecule?
A: 100

Q: And the “Plant response rating, Foxtail, Giant” value (giant foxtail [4]; [10])?
A: 90

Q: And the “Foxtail, Giant plant response rating” value (giant foxtail [4]; [11])?
A: 100

Q: And the “Plant response rating, Foxtail, Giant” value (giant foxtail [5]; Postemergence, 125 g ai/ha)?
A: 50

Q: What about the “Foxtail, Giant plant response rating” value (giant foxtail [5]; [6]) of the same molecule?
A: 80

Q: What about the “Foxtail, Giant plant response rating” value (giant foxtail [5]; [7]) of the same molecule?
A: 100

Q: What about the “Plant response rating, Foxtail, Giant” value (giant foxtail [5]; Preemergence, 500 g ai/ha) of the same molecule?
A: 100

Q: And the “Kochia plant response rating” value (kochia; [8])?
A: 100

Q: And the “Kochia plant response rating” value (kochia; [9])?
A: 100

Q: What about the “Plant response rating, Kochia” value (kochia; [10]) of the same molecule?
A: 85

Q: And the “Kochia plant response rating” value (kochia; [11])?
A: 100

Q: What about the “Galium plant response rating” value (catchweed bedstraw; [8]) of the same molecule?
A: 100

Q: What about the “Galium plant response rating” value (catchweed bedstraw; [9]) of the same molecule?
A: 100

Q: And the “Plant response rating, Galium” value (catchweed bedstraw; [10])?
A: 95

Q: And the “Galium plant response rating” value (catchweed bedstraw; [11])?
A: 100

Q: And the “Surinam Grass plant response rating” value (Surinam grass; [8])?
A: 90

Q: And the “Surinam Grass plant response rating” value (Surinam grass; [9])?
A: 90

Q: What about the “Plant response rating, Surinam Grass” value (Surinam grass; [10]) of the same molecule?
A: 90

Q: And the “Surinam Grass plant response rating” value (Surinam grass; [11])?
A: 100

Q: What about the “Nightshade plant response rating” value (eastern black nightshade; [8]) of the same molecule?
A: 55

Q: And the “Nightshade plant response rating” value (eastern black nightshade; [9])?
A: 100

Q: What about the “Plant response rating, Nightshade” value (eastern black nightshade; [10]) of the same molecule?
A: 50

Q: What about the “Nightshade plant response rating” value (eastern black nightshade; [11]) of the same molecule?
A: 100

Q: What about the “Oat, Wild plant response rating” value (wild oat; [8]) of the same molecule?
A: 65

Q: And the “Oat, Wild plant response rating” value (wild oat; [9])?
A: 65

Q: And the “Plant response rating, Oat, Wild” value (wild oat; [10])?
A: 35

Q: What about the “Oat, Wild plant response rating” value (wild oat; [11]) of the same molecule?
A: 98

Q: What about the “Ragweed plant response rating” value (common ragweed; [8]) of the same molecule?
A: 100

Q: What about the “Ragweed plant response rating” value (common ragweed; [9]) of the same molecule?
A: 100

Q: And the “Plant response rating, Ragweed” value (common ragweed; [10])?
A: 60

Q: And the “Ragweed plant response rating” value (common ragweed; [11])?
A: 100

Q: What about the “Lambsquarters plant response rating” value (lambsquarters; [8]) of the same molecule?
A: 90

Q: What about the “Lambsquarters plant response rating” value (lambsquarters; [9]) of the same molecule?
A: 100

Q: What about the “Plant response rating, Lambsquarters” value (lambsquarters; [10]) of the same molecule?
A: 90

Q: What about the “Lambsquarters plant response rating” value (lambsquarters; [11]) of the same molecule?
A: 100
